Test [1] deals with Sodium-dependent noradrenaline transporter (Homo sapiens, UniProt P23975).
The target of another test is Histamine H3 receptor (Homo sapiens, UniProt Q9Y5N1).
Another test has as its target T1, Progesterone receptor (Homo sapiens, UniProt P06401).
T1 sequence (P06401 whole entry): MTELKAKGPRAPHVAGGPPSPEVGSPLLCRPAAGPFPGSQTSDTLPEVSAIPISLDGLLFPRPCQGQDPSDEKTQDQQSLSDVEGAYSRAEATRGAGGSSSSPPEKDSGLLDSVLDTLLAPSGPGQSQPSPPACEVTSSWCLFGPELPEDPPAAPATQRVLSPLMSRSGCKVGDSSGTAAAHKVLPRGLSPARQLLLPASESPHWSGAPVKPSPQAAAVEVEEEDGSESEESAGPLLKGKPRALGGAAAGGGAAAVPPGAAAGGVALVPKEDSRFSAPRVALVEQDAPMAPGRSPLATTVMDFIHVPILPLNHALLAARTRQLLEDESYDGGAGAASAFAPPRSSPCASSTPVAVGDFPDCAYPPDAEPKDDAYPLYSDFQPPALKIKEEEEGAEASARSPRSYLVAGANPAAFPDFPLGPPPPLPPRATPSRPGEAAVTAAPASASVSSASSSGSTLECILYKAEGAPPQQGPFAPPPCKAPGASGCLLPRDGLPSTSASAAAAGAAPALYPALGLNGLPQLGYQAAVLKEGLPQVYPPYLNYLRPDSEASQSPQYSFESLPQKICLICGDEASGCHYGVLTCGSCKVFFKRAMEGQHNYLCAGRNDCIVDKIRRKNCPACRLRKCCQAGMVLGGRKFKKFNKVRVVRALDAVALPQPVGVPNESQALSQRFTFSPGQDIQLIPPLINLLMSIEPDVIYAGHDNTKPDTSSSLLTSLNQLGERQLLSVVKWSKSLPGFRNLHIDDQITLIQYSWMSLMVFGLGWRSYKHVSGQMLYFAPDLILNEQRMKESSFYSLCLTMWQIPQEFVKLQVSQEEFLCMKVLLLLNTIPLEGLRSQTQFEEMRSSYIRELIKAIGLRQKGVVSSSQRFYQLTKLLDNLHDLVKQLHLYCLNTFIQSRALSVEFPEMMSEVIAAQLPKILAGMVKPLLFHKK
The class given is functional.

Test [2] concerns the target Beta-2 adrenergic receptor (Homo sapiens, UniProt P07550).
For test [3], the target named is T2, Alpha-1A adrenergic receptor (Homo sapiens, UniProt P35348).
T2 sequence (P35348 whole entry): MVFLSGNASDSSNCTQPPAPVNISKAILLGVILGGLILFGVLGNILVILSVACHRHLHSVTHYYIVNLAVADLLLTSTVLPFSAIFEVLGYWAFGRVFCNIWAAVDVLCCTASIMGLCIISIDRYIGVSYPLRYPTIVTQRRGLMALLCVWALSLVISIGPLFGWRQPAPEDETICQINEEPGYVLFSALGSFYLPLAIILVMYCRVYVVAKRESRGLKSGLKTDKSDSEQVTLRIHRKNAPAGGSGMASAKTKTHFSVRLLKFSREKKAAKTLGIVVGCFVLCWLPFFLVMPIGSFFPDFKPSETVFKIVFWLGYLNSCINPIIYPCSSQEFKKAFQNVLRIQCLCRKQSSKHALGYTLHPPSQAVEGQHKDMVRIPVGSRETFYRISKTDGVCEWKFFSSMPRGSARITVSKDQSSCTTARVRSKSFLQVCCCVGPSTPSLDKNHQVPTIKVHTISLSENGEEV
The class given is functional, cell-based.

For another test, the target named is Mu-type opioid receptor (Homo sapiens, UniProt P35372). As to the kind of experiment: biochemical. The format is functional.
Test [4] has as its target T3, Muscarinic acetylcholine receptor M2 (Homo sapiens, UniProt P08172).
T3 sequence (P08172 whole entry): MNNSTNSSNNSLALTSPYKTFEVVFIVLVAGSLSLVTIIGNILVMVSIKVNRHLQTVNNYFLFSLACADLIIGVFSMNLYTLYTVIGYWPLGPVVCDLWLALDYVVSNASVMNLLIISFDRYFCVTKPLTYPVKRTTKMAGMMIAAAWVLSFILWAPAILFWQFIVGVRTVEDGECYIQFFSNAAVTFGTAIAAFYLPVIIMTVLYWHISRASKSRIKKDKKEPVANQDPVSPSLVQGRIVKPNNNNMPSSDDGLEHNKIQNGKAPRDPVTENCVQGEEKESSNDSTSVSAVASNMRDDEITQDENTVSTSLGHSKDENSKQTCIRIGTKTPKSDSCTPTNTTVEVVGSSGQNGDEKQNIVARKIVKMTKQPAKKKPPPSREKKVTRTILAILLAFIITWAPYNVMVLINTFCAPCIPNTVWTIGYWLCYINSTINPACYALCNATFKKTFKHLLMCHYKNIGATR
The format is functional, cell-based.

Test [5] concerns the target T2, Alpha-1A adrenergic receptor. The format is functional, cell-based. The source holds these as a separate data set.
In another test the target is Cannabinoid receptor 1 (Homo sapiens, UniProt P21554). The format is functional, cell-based.
In test [6] the target is Muscarinic acetylcholine receptor M3 (Homo sapiens, UniProt P20309).
Test [7] addresses 5-hydroxytryptamine receptor 2A (Homo sapiens, UniProt P28223). The format is functional, cell-based.
In test [8] the target is T4, Alpha-2B adrenergic receptor (Homo sapiens, UniProt P18089).
T4 sequence (P18089 whole entry): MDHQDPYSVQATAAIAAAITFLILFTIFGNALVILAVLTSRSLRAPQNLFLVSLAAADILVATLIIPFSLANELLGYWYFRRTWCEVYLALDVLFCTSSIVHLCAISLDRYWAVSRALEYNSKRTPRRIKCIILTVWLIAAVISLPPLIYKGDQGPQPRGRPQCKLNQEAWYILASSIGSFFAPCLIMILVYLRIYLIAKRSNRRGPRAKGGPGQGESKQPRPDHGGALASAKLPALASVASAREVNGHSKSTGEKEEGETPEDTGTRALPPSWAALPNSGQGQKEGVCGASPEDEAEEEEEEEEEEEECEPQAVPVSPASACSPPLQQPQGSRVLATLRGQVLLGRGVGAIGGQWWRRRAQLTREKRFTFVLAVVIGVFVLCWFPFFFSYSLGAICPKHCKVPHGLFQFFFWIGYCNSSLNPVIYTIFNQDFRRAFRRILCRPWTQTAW

The target of test [9] is Voltage-dependent L-type calcium channel subunit alpha-1C (Rattus norvegicus, UniProt P22002). The format is functional.

Molecules are shown by their SMILES.
Further: assay procedure not described here.

Sequence of Beta-2 adrenergic receptor (P07550 whole entry): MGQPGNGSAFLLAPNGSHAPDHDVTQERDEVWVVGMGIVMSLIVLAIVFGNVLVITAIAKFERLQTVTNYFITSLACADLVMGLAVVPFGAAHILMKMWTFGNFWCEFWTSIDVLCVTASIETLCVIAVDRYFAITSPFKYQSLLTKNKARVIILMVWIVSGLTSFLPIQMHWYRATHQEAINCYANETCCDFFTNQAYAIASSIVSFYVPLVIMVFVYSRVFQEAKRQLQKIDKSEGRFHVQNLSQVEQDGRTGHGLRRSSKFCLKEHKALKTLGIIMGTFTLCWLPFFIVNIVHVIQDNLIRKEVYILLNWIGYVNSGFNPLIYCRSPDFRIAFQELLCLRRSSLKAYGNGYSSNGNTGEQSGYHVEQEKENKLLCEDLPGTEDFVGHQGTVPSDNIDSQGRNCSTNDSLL
Sequence of Histamine H3 receptor (Q9Y5N1 whole entry): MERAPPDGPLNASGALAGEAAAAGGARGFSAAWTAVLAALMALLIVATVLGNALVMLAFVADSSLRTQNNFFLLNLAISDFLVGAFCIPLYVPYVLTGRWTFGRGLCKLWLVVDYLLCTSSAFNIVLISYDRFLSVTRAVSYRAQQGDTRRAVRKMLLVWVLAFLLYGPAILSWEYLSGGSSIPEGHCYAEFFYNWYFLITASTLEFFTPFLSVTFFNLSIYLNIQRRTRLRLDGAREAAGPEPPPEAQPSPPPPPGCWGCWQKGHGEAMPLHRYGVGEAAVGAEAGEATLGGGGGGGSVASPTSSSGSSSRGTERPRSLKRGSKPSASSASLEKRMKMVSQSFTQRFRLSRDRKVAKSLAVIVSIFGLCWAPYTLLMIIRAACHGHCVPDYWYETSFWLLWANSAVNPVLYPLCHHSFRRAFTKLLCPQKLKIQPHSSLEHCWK
Sequence of Mu-type opioid receptor (P35372 whole entry): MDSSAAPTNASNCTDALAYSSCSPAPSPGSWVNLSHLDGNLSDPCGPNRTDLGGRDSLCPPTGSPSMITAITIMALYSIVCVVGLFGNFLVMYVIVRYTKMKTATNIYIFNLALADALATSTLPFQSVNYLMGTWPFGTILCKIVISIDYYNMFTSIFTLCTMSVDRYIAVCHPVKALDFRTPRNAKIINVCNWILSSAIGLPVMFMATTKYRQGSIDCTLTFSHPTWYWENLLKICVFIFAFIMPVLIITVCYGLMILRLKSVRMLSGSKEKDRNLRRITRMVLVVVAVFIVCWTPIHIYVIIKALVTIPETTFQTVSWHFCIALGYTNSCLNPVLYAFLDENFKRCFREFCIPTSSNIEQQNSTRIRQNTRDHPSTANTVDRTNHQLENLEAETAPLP
Sequence of Sodium-dependent noradrenaline transporter (P23975 whole entry): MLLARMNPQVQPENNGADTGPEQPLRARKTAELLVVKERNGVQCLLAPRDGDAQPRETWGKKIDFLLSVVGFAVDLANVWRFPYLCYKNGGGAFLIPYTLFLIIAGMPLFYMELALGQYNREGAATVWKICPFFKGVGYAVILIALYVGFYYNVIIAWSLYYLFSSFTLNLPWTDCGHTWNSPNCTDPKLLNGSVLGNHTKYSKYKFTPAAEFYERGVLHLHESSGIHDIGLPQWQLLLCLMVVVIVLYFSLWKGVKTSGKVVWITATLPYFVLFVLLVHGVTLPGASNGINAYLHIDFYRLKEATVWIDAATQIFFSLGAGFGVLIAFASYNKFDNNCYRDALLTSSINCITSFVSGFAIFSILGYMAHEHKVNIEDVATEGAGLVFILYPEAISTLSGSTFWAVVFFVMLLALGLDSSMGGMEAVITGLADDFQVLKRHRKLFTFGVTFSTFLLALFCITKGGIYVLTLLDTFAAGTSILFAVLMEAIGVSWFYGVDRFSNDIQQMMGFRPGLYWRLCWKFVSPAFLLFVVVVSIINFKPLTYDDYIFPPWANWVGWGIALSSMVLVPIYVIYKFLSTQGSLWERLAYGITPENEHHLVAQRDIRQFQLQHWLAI
Sequence of Cannabinoid receptor 1 (P21554 whole entry): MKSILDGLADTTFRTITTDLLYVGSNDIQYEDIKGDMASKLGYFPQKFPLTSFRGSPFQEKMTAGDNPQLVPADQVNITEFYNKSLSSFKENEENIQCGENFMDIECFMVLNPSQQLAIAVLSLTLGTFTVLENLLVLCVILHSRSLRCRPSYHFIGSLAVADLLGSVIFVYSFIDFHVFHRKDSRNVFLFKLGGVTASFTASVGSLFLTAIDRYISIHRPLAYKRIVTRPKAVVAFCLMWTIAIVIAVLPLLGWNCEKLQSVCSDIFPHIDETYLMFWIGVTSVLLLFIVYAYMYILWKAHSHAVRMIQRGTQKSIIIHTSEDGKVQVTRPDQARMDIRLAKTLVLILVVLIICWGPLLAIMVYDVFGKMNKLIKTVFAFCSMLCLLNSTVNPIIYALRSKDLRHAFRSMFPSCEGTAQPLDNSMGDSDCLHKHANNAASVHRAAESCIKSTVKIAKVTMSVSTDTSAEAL
Sequence of Voltage-dependent L-type calcium channel subunit alpha-1C (P22002 whole entry): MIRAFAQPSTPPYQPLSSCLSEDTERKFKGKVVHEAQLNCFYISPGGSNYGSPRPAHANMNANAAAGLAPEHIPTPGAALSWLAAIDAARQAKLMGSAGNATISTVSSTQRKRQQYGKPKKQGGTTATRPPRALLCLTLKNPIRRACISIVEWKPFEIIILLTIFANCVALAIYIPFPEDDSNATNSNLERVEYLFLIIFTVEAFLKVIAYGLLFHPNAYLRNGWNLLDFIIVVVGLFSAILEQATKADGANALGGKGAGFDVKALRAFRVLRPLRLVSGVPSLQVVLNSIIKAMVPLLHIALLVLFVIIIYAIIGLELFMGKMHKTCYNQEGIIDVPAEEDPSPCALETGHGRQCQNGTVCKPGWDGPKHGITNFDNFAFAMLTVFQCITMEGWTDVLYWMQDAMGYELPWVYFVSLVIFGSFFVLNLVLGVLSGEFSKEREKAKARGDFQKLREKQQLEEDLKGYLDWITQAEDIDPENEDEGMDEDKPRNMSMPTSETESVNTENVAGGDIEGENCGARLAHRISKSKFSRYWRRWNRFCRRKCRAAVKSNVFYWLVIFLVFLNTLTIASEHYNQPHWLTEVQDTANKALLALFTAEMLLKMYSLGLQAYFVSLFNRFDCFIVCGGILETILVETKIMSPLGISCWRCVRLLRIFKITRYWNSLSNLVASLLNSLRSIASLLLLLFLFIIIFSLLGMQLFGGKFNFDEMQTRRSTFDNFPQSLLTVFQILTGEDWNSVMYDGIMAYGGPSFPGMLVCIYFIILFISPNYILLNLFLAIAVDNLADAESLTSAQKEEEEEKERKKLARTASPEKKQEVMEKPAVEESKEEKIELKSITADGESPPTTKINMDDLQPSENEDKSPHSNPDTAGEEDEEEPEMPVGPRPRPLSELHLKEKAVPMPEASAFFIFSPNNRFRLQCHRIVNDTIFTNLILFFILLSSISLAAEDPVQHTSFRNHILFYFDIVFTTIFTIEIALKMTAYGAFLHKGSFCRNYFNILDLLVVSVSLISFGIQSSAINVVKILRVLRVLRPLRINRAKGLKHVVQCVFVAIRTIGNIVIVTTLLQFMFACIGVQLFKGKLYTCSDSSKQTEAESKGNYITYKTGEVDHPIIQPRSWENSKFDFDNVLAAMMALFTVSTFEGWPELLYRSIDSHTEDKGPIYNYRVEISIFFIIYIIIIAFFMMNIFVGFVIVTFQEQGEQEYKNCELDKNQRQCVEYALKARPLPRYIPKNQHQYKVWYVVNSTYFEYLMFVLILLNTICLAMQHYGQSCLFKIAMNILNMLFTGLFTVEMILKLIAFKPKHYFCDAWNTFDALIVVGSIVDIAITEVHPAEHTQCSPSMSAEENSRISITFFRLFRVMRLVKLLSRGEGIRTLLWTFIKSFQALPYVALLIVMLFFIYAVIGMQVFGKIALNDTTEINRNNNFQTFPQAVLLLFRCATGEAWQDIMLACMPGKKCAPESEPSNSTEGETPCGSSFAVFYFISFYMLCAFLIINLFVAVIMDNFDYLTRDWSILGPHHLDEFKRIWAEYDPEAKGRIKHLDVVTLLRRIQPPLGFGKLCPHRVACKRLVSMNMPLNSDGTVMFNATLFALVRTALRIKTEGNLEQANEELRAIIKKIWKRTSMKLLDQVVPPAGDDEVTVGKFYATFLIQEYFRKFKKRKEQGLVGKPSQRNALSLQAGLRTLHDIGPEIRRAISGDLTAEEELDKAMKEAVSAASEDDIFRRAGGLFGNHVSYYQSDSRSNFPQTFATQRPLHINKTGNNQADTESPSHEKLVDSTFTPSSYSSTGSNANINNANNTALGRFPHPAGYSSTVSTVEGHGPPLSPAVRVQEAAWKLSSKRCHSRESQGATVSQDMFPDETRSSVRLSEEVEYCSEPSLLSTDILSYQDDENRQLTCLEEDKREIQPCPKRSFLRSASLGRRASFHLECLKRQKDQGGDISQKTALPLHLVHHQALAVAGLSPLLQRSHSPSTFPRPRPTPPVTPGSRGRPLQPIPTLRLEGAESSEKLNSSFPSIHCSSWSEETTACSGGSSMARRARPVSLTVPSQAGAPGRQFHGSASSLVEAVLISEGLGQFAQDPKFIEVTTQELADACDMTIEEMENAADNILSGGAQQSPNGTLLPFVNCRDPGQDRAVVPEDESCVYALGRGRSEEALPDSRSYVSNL
Sequence of 5-hydroxytryptamine receptor 2A (P28223 whole entry): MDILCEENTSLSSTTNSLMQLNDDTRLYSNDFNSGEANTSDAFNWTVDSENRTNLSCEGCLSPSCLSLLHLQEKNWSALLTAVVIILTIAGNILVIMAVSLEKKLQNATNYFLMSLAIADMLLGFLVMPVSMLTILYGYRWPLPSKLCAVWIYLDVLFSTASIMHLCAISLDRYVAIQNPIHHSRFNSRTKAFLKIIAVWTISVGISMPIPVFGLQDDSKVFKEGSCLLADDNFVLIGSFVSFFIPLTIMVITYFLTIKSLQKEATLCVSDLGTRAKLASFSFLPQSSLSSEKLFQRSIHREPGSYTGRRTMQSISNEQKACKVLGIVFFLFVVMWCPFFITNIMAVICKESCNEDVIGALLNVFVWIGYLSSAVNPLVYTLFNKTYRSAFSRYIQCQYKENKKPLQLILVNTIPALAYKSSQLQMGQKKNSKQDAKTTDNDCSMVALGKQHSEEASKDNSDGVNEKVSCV

For the compound `CN(C)C(=O)Oc1cc(OC(=O)N(C)C)cc(C(O)CNC(C)(C)C)c1` (centres undefined) [BAMBUTEROL], the AC50 in [1] is > 30 µM; on Histamine H3 receptor, > 30 µM; at Progesterone receptor, > 30 µM; in test [2], 9.7 µM.
On to `CO[C@@]1(NC(=O)CSCC#N)C(=O)N2C(C(=O)O)=C(CSc3nnnn3C)CS[C@@H]21` [CEFMETAZOLE], for which the AC50 (in [3]; on Mu-type opioid receptor; in test [4]; in test [5]; at Cannabinoid receptor 1) was > 30 µM throughout.
Take `CO/N=C(\C(=O)N[C@@H]1C(=O)N2C(C(=O)[O-])=C(C[n+]3cccc4c3CCC4)CS[C@H]12)c1csc(N)n1` [CEFPIROME]: the AC50 (in [6]; in test [7]; in test [8]; in [3]; on Mu-type opioid receptor; in test [4]) was > 30 µM throughout. For the same compound, the AC50 (in test [5]; at Cannabinoid receptor 1) was > 30 µM in each case.
In the case of `CC[C@H]1OC(=O)[C@H](C)[C@@H](O[C@H]2C[C@@](C)(OC)[C@@H](O)[C@H](C)O2)[C@H](C)[C@@H](O[C@@H]2O[C@H](C)C[C@H](N(C)C)[C@H]2O)[C@](C)(OC)C[C@@H](C)C(=O)[C@H](C)[C@@H](O)[C@]1(C)O` [CLARITHROMYCIN], the AC50 (in test [1]; in test [3]; on Mu-type opioid receptor; in [4]; in test [5]; at Cannabinoid receptor 1) was > 30 µM each time. For the same compound, the AC50 at Histamine H3 receptor and on Progesterone receptor was > 30 µM throughout.
On to `Oc1c(I)cc(Cl)c2cccnc12` [CLIOQUINOL], for which the AC50 (in test [6]; in test [7]; in [8]; in test [3]; on Mu-type opioid receptor; in test [5]) was > 30 µM each time. Further, at Cannabinoid receptor 1, the AC50 was > 30 µM.
For the compound `C[C@@H]1CCC[C@H](C)N1NC(=O)c1ccc(Cl)c(S(N)(=O)=O)c1` [CLOPAMIDE], the AC50 in [6], in test [9], in test [1], in test [7], in test [8] and in test [3] was > 30 µM throughout. Further, the AC50 (at Mu-type opioid receptor; in test [4]; in test [5]; on Cannabinoid receptor 1; at Histamine H3 receptor; at Progesterone receptor) was > 30 µM throughout. Further, the AC50 in test [2] is > 30 µM.
Take `O=C(O)CSCC(=O)NC1CCSC1=O` (centres undefined) [ERDOSTEINE]: the AC50 in test [6], in test [9], in test [1], in test [7], in [8] and in test [3] was > 30 µM throughout. Also, the AC50 (at Mu-type opioid receptor; in [4]; in [5]; at Cannabinoid receptor 1; at Histamine H3 receptor; at Progesterone receptor) was > 30 µM throughout. In test [2], the AC50 was > 30 µM.
`N=C(N)c1ccc2cc(OC(=O)c3ccc(N=C(N)N)cc3)ccc2c1` [NAFAMOSTAT]: the AC50 in test [6] is 15 µM; in test [9] it was > 30 µM; in test [7], > 30 µM; in [8], 12 µM; in test [3], > 30 µM; at Mu-type opioid receptor, > 30 µM. The AC50 in test [4] was 12 µM; in [5], 15 µM; on Cannabinoid receptor 1 it was > 30 µM; at Histamine H3 receptor, 7.9 µM.
As for `c1ccc2c(CC3=NCCN3)cccc2c1` [NAPHAZOLINE], the figures for the AC50 in [8] and in test [3] were 0.19 µM and 0.0006 µM, respectively.
As to `CNC(=O)Oc1ccc2c(c1)[C@]1(C)CCN(C)[C@@H]1N2C` [PHYSOSTIGMINE], the AC50 (in test [9]; in test [1]; in test [3]; at Mu-type opioid receptor; in test [4]; in test [5]) was > 30 µM throughout. The AC50 was > 30 µM on Cannabinoid receptor 1, 16 µM on Histamine H3 receptor, > 30 µM on Progesterone receptor and > 30 µM in [2].
For the compound `NS(=O)(=O)c1cc(C(=O)O)cc(N2CCCC2)c1Oc1ccccc1` [PIRETANIDE], the AC50 (in test [6]; in test [9]; in [1]; in [7]; in [8]; at Mu-type opioid receptor) was > 30 µM in each case. Moreover, the AC50 (in [4]; at Cannabinoid receptor 1; at Histamine H3 receptor; at Progesterone receptor; in test [2]) was > 30 µM each time.
For the compound `O=C(CCCN1CCC2(CC1)C(=O)NCN2c1ccccc1)c1ccc(F)cc1` [SPIPERONE], the AC50 in test [6] is > 30 µM; in test [8] it was 2.25 µM; in test [3], 11.8 µM; in test [5] it was 1.6 µM; on Cannabinoid receptor 1, > 30 µM; on Histamine H3 receptor, 9.2 µM. Besides, the AC50 at Progesterone receptor is > 30 µM.
For the compound `CCSc1ccc2c(c1)N(CCCN1CCN(C)CC1)c1ccccc1S2` [THIETHYLPERAZINE], the AC50 was 9.6 µM in test [1]; 1.6 µM in test [7]; > 30 µM in test [3]; > 10 µM in test [4]; 1.6 µM in [5]; > 30 µM on Progesterone receptor.
As to `CN(C)c1cc(NC(=O)CNC(C)(C)C)c(O)c2c1C[C@H]1C[C@H]3[C@H](N(C)C)C(O)=C(C(N)=O)C(=O)[C@@]3(O)C(O)=C1C2=O` [TIGECYCLINE], the AC50 (in test [6]; in [9]; in test [1]; in [7]; in test [8]; on Mu-type opioid receptor) was > 30 µM each time. The AC50 (in test [4]; on Histamine H3 receptor; on Progesterone receptor; in test [2]) was > 30 µM throughout.

(Values after ChEMBL document CHEMBL5291721, “A preclinical secondary pharmacology resource illuminates target-adverse drug reaction associations of marketed drugs” (Nat Commun, 2023).)
